Data from the supplement of paper PMC10307832.

Compound: O=C1NC(=O)[C@@H](c2cn3c4c(cccc24)CCC3)[C@@H]1c1c[nH]c2ccccc12 [Tivantinib] + O=C(CCCCCCC(=O)Nc1ccccc1)NO [Vorinostat] (partner 1 µM)
Assay: relative viability (nuclei count vs DMSO), 5 days (fraction); higher = more cells survive
Details: first compound 0.3162 µM
How it was run: (§1)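 Cells from lung cancer lines were seeded into 1536-well plates and, one day later, dosed by pin tool. Treatments were either a single drug or a fixed dose of an anchor drug with five library-drug doses (not always all listed) in √10 steps. After 5 days, nuclei were stained in a one-step fixation (final 0.05% Triton X-100, 1% formaldehyde, 1 ug/ml Hoechst) and counted on 4× images, and relative viability is the treated-to-vehicle nuclei ratio, as the median of duplicate plates.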

**Q.** With NCI-H2085 as the cell line, how does the relative viability read?
**A.** 0.669

**Q.** How did the relative viability turn out when HCC-366 was run?
**A.** 0.415

**Q.** With PC-3 [JPC-3] as the cell line, how does the relative viability read?
**A.** 0.807

**Q.** How did the relative viability turn out when EKVX was run?
**A.** 0.383

**Q.** LCLC-103H was tested. Which relative viability did it give?
**A.** 0.936

**Q.** With NCI-H1650 as the cell line, how does the relative viability read?
**A.** 0.553

**Q.** Which relative viability does the source give for NCI-H1993 here?
**A.** 0.66

**Q.** SK-LU-1 was tested. Which relative viability did it give?
**A.** 0.836

**Q.** Which relative viability does the source give for NCI-H661 here?
**A.** 0.659

**Q.** How did the relative viability turn out when RERF-LC-KJ was run?
**A.** 0.502

Compound: O=C1NC(=O)[C@@H](c2cn3c4c(cccc24)CCC3)[C@@H]1c1c[nH]c2ccccc12 [Tivantinib] + CC(C)C[C@H](NC(=O)[C@H](Cc1ccccc1)NC(=O)c1cnccn1)B(O)O [Bortezomib] (partner 0.002 µM)
Assay: as above
Details: first compound 0.01 µM
How it was run: as §1

**Q.** With HCC-827 as the cell line, how does the relative viability read?
**A.** 1.02

**Q.** With NCI-H441 as the cell line, how does the relative viability read?
**A.** 0.525

**Q.** With LOU-NH91 as the cell line, how does the relative viability read?
**A.** 0.479

**Q.** With NCI-H2023 as the cell line, how does the relative viability read?
**A.** 1.06

**Q.** For A-427, which relative viability is on record?
**A.** 0.997

**Q.** Which relative viability does the source give for NCI-H460 here?
**A.** 1.06

**Q.** How did the relative viability turn out when NCI-H1755 was run?
**A.** 0.974

**Q.** For NCI-H520, which relative viability is on record?
**A.** 0.687

**Q.** NCI-H2405 was tested. Which relative viability did it give?
**A.** 0.582

**Q.** Which relative viability does the source give for SW 1573 here?
**A.** 1.16

**Q.** With 201T as the cell line, how does the relative viability read?
**A.** 1.06

**Q.** For NCI-H1975, which relative viability is on record?
**A.** 0.411

**Q.** HOP-62 was tested. Which relative viability did it give?
**A.** 0.948

**Q.** With NCI-H2347 as the cell line, how does the relative viability read?
**A.** 1.07

**Q.** Which relative viability does the source give for NCI-H1355 here?
**A.** 1.31

**Q.** For NCI-H650, which relative viability is on record?
**A.** 0.723

**Q.** For CAL-12T, which relative viability is on record?
**A.** 0.999

**Q.** For NCI-H1666, which relative viability is on record?
**A.** 0.856

**Q.** With H3255 as the cell line, how does the relative viability read?
**A.** 0.812

**Q.** With NCI-H23 as the cell line, how does the relative viability read?
**A.** 1.13

**Q.** With NCI-H1915 as the cell line, how does the relative viability read?
**A.** 0.982

**Q.** Which relative viability does the source give for NCI-H1437 here?
**A.** 0.503

**Q.** Which relative viability does the source give for NCI-H322M here?
**A.** 1.17

**Q.** With NCI-H2085 as the cell line, how does the relative viability read?
**A.** 0.994

**Q.** For HCC-366, which relative viability is on record?
**A.** 0.996

**Q.** For PC-3 [JPC-3], which relative viability is on record?
**A.** 0.839

**Q.** With EKVX as the cell line, how does the relative viability read?
**A.** 1.22

**Q.** For LCLC-103H, which relative viability is on record?
**A.** 0.909

**Q.** How did the relative viability turn out when NCI-H1650 was run?
**A.** 0.215

**Q.** With NCI-H1993 as the cell line, how does the relative viability read?
**A.** 1.16

**Q.** With SK-LU-1 as the cell line, how does the relative viability read?
**A.** 1.07

**Q.** With NCI-H661 as the cell line, how does the relative viability read?
**A.** 0.897

**Q.** For RERF-LC-KJ, which relative viability is on record?
**A.** 1.18

Same assay, conditions: first compound 0.03162 µM

**Q.** Which relative viability does the source give for HCC-827 here?
**A.** 1.12

**Q.** With NCI-H441 as the cell line, how does the relative viability read?
**A.** 0.651

**Q.** LOU-NH91 was tested. Which relative viability did it give?
**A.** 0.496

**Q.** NCI-H2023 was tested. Which relative viability did it give?
**A.** 0.654

**Q.** For A-427, which relative viability is on record?
**A.** 1

**Q.** How did the relative viability turn out when NCI-H460 was run?
**A.** 1.04

**Q.** With NCI-H1755 as the cell line, how does the relative viability read?
**A.** 0.94

**Q.** NCI-H520 was tested. Which relative viability did it give?
**A.** 0.235

**Q.** Which relative viability does the source give for NCI-H2405 here?
**A.** 0.982

**Q.** For SW 1573, which relative viability is on record?
**A.** 1.17

**Q.** With 201T as the cell line, how does the relative viability read?
**A.** 1.06

**Q.** For NCI-H1975, which relative viability is on record?
**A.** 0.366

**Q.** How did the relative viability turn out when NCI-H2347 was run?
**A.** 1.01

**Q.** NCI-H1355 was tested. Which relative viability did it give?
**A.** 1.18

**Q.** CAL-12T was tested. Which relative viability did it give?
**A.** 0.873

**Q.** NCI-H1666 was tested. Which relative viability did it give?
**A.** 0.828

**Q.** Which relative viability does the source give for H3255 here?
**A.** 0.884

**Q.** For NCI-H23, which relative viability is on record?
**A.** 1.11

**Q.** For NCI-H1915, which relative viability is on record?
**A.** 0.961

**Q.** With NCI-H1437 as the cell line, how does the relative viability read?
**A.** 0.344

**Q.** For NCI-H322M, which relative viability is on record?
**A.** 1.15

**Q.** With NCI-H2085 as the cell line, how does the relative viability read?
**A.** 0.972

**Q.** For HCC-366, which relative viability is on record?
**A.** 1.16

**Q.** For PC-3 [JPC-3], which relative viability is on record?
**A.** 0.899

**Q.** With EKVX as the cell line, how does the relative viability read?
**A.** 1

**Q.** For LCLC-103H, which relative viability is on record?
**A.** 0.895

**Q.** Which relative viability does the source give for NCI-H1650 here?
**A.** 0.213

**Q.** With NCI-H1993 as the cell line, how does the relative viability read?
**A.** 1.05

**Q.** For SK-LU-1, which relative viability is on record?
**A.** 0.954

**Q.** How did the relative viability turn out when NCI-H661 was run?
**A.** 0.782

**Q.** RERF-LC-KJ was tested. Which relative viability did it give?
**A.** 1.22

Same assay, conditions: first compound 0.1 µM

**Q.** With HCC-827 as the cell line, how does the relative viability read?
**A.** 1.03

**Q.** Which relative viability does the source give for LOU-NH91 here?
**A.** 0.522

**Q.** How did the relative viability turn out when NCI-H2023 was run?
**A.** 0.915

**Q.** Which relative viability does the source give for A-427 here?
**A.** 0.854

**Q.** With NCI-H460 as the cell line, how does the relative viability read?
**A.** 0.975

**Q.** How did the relative viability turn out when NCI-H1755 was run?
**A.** 0.934

**Q.** For NCI-H520, which relative viability is on record?
**A.** 0.505

**Q.** For NCI-H2405, which relative viability is on record?
**A.** 0.848

**Q.** How did the relative viability turn out when SW 1573 was run?
**A.** 1.1

**Q.** How did the relative viability turn out when 201T was run?
**A.** 1.09

**Q.** With NCI-H1975 as the cell line, how does the relative viability read?
**A.** 0.442

**Q.** Which relative viability does the source give for HOP-62 here?
**A.** 0.591

**Q.** With NCI-H2347 as the cell line, how does the relative viability read?
**A.** 1.13

**Q.** For NCI-H1355, which relative viability is on record?
**A.** 1.17

**Q.** NCI-H650 was tested. Which relative viability did it give?
**A.** 0.772

**Q.** For CAL-12T, which relative viability is on record?
**A.** 1.03

**Q.** NCI-H1666 was tested. Which relative viability did it give?
**A.** 0.744

**Q.** With H3255 as the cell line, how does the relative viability read?
**A.** 0.723

**Q.** How did the relative viability turn out when NCI-H23 was run?
**A.** 0.996

**Q.** Which relative viability does the source give for NCI-H1915 here?
**A.** 0.946

**Q.** NCI-H1437 was tested. Which relative viability did it give?
**A.** 0.425

**Q.** With NCI-H322M as the cell line, how does the relative viability read?
**A.** 1.22

**Q.** For NCI-H2085, which relative viability is on record?
**A.** 1.02

**Q.** For HCC-366, which relative viability is on record?
**A.** 1.03

**Q.** How did the relative viability turn out when PC-3 [JPC-3] was run?
**A.** 0.863

**Q.** Which relative viability does the source give for EKVX here?
**A.** 0.928

**Q.** With LCLC-103H as the cell line, how does the relative viability read?
**A.** 0.966

**Q.** NCI-H1650 was tested. Which relative viability did it give?
**A.** 0.225

**Q.** How did the relative viability turn out when NCI-H1993 was run?
**A.** 1.14

**Q.** With SK-LU-1 as the cell line, how does the relative viability read?
**A.** 1.32

**Q.** How did the relative viability turn out when NCI-H661 was run?
**A.** 0.9

**Q.** With RERF-LC-KJ as the cell line, how does the relative viability read?
**A.** 1.19

Same assay, conditions: first compound 0.3162 µM

**Q.** For HCC-827, which relative viability is on record?
**A.** 1.11

**Q.** Which relative viability does the source give for NCI-H441 here?
**A.** 0.449

**Q.** Which relative viability does the source give for LOU-NH91 here?
**A.** 0.473

**Q.** For NCI-H2023, which relative viability is on record?
**A.** 0.826

**Q.** For A-427, which relative viability is on record?
**A.** 1.06

**Q.** With NCI-H460 as the cell line, how does the relative viability read?
**A.** 1.36

**Q.** Which relative viability does the source give for NCI-H1755 here?
**A.** 1.01

**Q.** How did the relative viability turn out when NCI-H520 was run?
**A.** 0.595

**Q.** How did the relative viability turn out when NCI-H2405 was run?
**A.** 0.976

**Q.** For SW 1573, which relative viability is on record?
**A.** 1.29

**Q.** Which relative viability does the source give for 201T here?
**A.** 1.1

**Q.** For NCI-H1975, which relative viability is on record?
**A.** 0.405

**Q.** How did the relative viability turn out when HOP-62 was run?
**A.** 1.05

**Q.** How did the relative viability turn out when NCI-H2347 was run?
**A.** 1.01

**Q.** NCI-H1355 was tested. Which relative viability did it give?
**A.** 1.21

**Q.** Which relative viability does the source give for NCI-H650 here?
**A.** 0.874

**Q.** With CAL-12T as the cell line, how does the relative viability read?
**A.** 0.854

**Q.** How did the relative viability turn out when NCI-H1666 was run?
**A.** 0.803

**Q.** How did the relative viability turn out when NCI-H23 was run?
**A.** 0.965

**Q.** How did the relative viability turn out when NCI-H1915 was run?
**A.** 0.975

**Q.** Which relative viability does the source give for NCI-H1437 here?
**A.** 0.434

**Q.** How did the relative viability turn out when NCI-H322M was run?
**A.** 1.06

**Q.** NCI-H2085 was tested. Which relative viability did it give?
**A.** 1.06

**Q.** HCC-366 was tested. Which relative viability did it give?
**A.** 1.03

**Q.** PC-3 [JPC-3] was tested. Which relative viability did it give?
**A.** 0.667

**Q.** EKVX was tested. Which relative viability did it give?
**A.** 0.6

**Q.** For LCLC-103H, which relative viability is on record?
**A.** 1.03

**Q.** NCI-H1650 was tested. Which relative viability did it give?
**A.** 0.176

**Q.** For NCI-H1993, which relative viability is on record?
**A.** 0.79

**Q.** Which relative viability does the source give for SK-LU-1 here?
**A.** 1.05

**Q.** Which relative viability does the source give for RERF-LC-KJ here?
**A.** 0.963
